# Where “and” joins values, the source holds several entries; their conditions need not be identical. Equal entries are not always repeated.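 Where inhibition never reached the appropriate level, the endpoint shown equals the highest concentration tested. Otherwise, values were interpolated linearly from a five-concentration, 48-hour dose response in 96-well plates. The concentration for 50% growth inhibition is given as GI50. The concentration for full growth arrest is given as TGI.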
# Columns and labels:
# Assay in all cases: NCI-60 cell line screen, 48 h
# U251 CNS = tested on: U251 CNS
# NCI-H522 lung = tested on: NCI-H522 lung
# HCT-116 colon = tested on: HCT-116 colon
# SF-268 CNS = tested on: SF-268 CNS
# KM12 colon = tested on: KM12 colon
# A549 NSCLC = tested on: A549 NSCLC
# MOLT-4 leukemia = tested on: MOLT-4 leukemia
# NCI/ADR-RES ovarian = tested on: NCI/ADR-RES ovarian
# A498 renal = tested on: A498 renal
# SF-539 CNS = tested on: SF-539 CNS
# SF-295 CNS = tested on: SF-295 CNS
# HL-60(TB) leukemia = tested on: HL-60(TB) leukemia
# EKVX NSCLC = tested on: EKVX NSCLC
# SK-MEL-5 melanoma = tested on: SK-MEL-5 melanoma
# UACC-257 melanoma = tested on: UACC-257 melanoma
# MDA-N = tested on: MDA-N
# NCI-H460 lung = tested on: NCI-H460 lung
# M14 melanoma = tested on: M14 melanoma
# SK-MEL-28 melanoma = tested on: SK-MEL-28 melanoma
# HOP-92 NSCLC = tested on: HOP-92 NSCLC
# OVCAR-4 ovarian = tested on: OVCAR-4 ovarian
# UACC-62 melanoma = tested on: UACC-62 melanoma
# SK-MEL-2 melanoma = tested on: SK-MEL-2 melanoma
# RPMI-8226 leukemia = tested on: RPMI-8226 leukemia
# LOX IMVI melanoma = tested on: LOX IMVI melanoma
# NCI-H226 lung = tested on: NCI-H226 lung
# IGROV1 ovarian = tested on: IGROV1 ovarian
# MDA-MB-435 = tested on: MDA-MB-435
# T-47D breast = tested on: T-47D breast
# OVCAR-8 ovarian = tested on: OVCAR-8 ovarian
# OVCAR-5 ovarian = tested on: OVCAR-5 ovarian
# SK-OV-3 ovarian = tested on: SK-OV-3 ovarian
# TK-10 renal = tested on: TK-10 renal
# SR leukemia = tested on: SR leukemia
# CAKI-1 renal = tested on: CAKI-1 renal
# HS 578T breast = tested on: HS 578T breast
# PC-3 prostate = tested on: PC-3 prostate
# HCC-2998 colon = tested on: HCC-2998 colon
# UO-31 renal = tested on: UO-31 renal
# K-562 leukemia = tested on: K-562 leukemia
# HCT-15 colon = tested on: HCT-15 colon
# SNB-19 CNS = tested on: SNB-19 CNS
# HOP-62 NSCLC = tested on: HOP-62 NSCLC
# MCF7 breast = tested on: MCF7 breast
# MDA-MB-231 breast = tested on: MDA-MB-231 breast
# OVCAR-3 ovarian = tested on: OVCAR-3 ovarian
# COLO 205 colon = tested on: COLO 205 colon
# HT29 colon = tested on: HT29 colon
# SN12C renal = tested on: SN12C renal
# CCRF-CEM leukemia = tested on: CCRF-CEM leukemia
# RXF 393 renal = tested on: RXF 393 renal
# DU-145 prostate = tested on: DU-145 prostate
# SW-620 colon = tested on: SW-620 colon
# ACHN renal = tested on: ACHN renal
# BT-549 breast = tested on: BT-549 breast
# MALME-3M melanoma = tested on: MALME-3M melanoma
# SNB-75 CNS = tested on: SNB-75 CNS
# 786-0 renal = tested on: 786-0 renal
# NCI-H23 lung = tested on: NCI-H23 lung
# DMS 114 small cell lung = tested on: DMS 114 small cell lung
# DMS 273 small cell lung = tested on: DMS 273 small cell lung
# SNB-78 CNS = tested on: SNB-78 CNS
# HOP-18 NSCLC = tested on: HOP-18 NSCLC
# DLD-1 colon = tested on: DLD-1 colon
# M19-MEL melanoma = tested on: M19-MEL melanoma
compound,measurement,setting,value
C/C(=C/CO[Si](C)(C)C(C)(C)C)C(=O)N(C)c1ccccc1I,TGI,U251 CNS,28.6 µM
same,TGI,NCI-H522 lung,31.5 µM
same,TGI,HCT-116 colon,25.8 µM
same,TGI,SF-268 CNS,33.4 µM
same,TGI,KM12 colon,33.6 µM
same,TGI,A549 NSCLC,32.4 µM
same,TGI,MOLT-4 leukemia,72.9 µM
same,TGI,NCI/ADR-RES ovarian,37.1 µM
same,TGI,A498 renal,31 µM
same,TGI,SF-539 CNS,32.3 µM
same,TGI,SF-295 CNS,31.5 µM
same,TGI,HL-60(TB) leukemia,32 µM
same,TGI,EKVX NSCLC,29.1 µM
same,TGI,SK-MEL-5 melanoma,29 µM
same,TGI,UACC-257 melanoma,26.4 µM
same,TGI,MDA-N,31.9 µM
same,TGI,NCI-H460 lung,30 µM
same,TGI,M14 melanoma,28.6 µM
same,TGI,SK-MEL-28 melanoma,35.7 µM
same,TGI,HOP-92 NSCLC,22.5 µM
same,TGI,OVCAR-4 ovarian,31.2 µM
same,TGI,UACC-62 melanoma,28 µM
same,TGI,SK-MEL-2 melanoma,30.5 µM
same,TGI,RPMI-8226 leukemia,77.9 µM
same,TGI,LOX IMVI melanoma,31.8 µM
same,TGI,NCI-H226 lung,32.4 µM
same,TGI,IGROV1 ovarian,29.9 µM
same,TGI,MDA-MB-435,33.7 µM
same,TGI,T-47D breast,35.9 µM
same,TGI,OVCAR-8 ovarian,32.2 µM
same,TGI,OVCAR-5 ovarian,27.8 µM
same,TGI,SK-OV-3 ovarian,35.5 µM
same,TGI,TK-10 renal,33.3 µM
same,TGI,SR leukemia,51.7 µM
same,TGI,CAKI-1 renal,29.9 µM
same,TGI,HS 578T breast,43.5 µM
same,TGI,PC-3 prostate,27 µM
same,TGI,HCC-2998 colon,28.3 µM
same,TGI,UO-31 renal,28 µM
same,TGI,K-562 leukemia,> 100 µM
same,TGI,HCT-15 colon,34.5 µM
same,TGI,SNB-19 CNS,30.6 µM
same,TGI,HOP-62 NSCLC,36.5 µM
same,TGI,MCF7 breast,30.6 µM
same,TGI,MDA-MB-231 breast,28.3 µM
same,TGI,OVCAR-3 ovarian,31.3 µM
same,TGI,COLO 205 colon,33.8 µM
same,TGI,HT29 colon,22.6 µM
same,TGI,SN12C renal,31.1 µM
same,TGI,CCRF-CEM leukemia,43 µM
same,TGI,RXF 393 renal,31.9 µM
same,TGI,DU-145 prostate,36.7 µM
same,TGI,SW-620 colon,35.8 µM
same,TGI,ACHN renal,31 µM
same,TGI,BT-549 breast,35.8 µM
same,TGI,MALME-3M melanoma,28.3 µM
same,TGI,SNB-75 CNS,33.4 µM
same,TGI,786-0 renal,31.7 µM
same,TGI,NCI-H23 lung,41.2 µM
NC(=O)c1cn(C2OC(CO)C(O)C2O)c2ncnc(N)c12 (configuration not stated),GI50,NCI-H522 lung,0.0482 µM and 0.021 µM
same,TGI,NCI-H522 lung,0.206 µM and 0.0701 µM
same,TGI,DMS 114 small cell lung,0.205 µM and 0.326 µM
same,TGI,MDA-MB-435,0.036 µM
same,TGI,T-47D breast,0.0523 µM
same,TGI,OVCAR-8 ovarian,0.383 µM and 0.904 µM and 0.0921 µM
same,TGI,TK-10 renal,0.0707 µM
same,GI50,SR leukemia,0.0128 µM
same,TGI,SR leukemia,0.0946 µM
same,TGI,HS 578T breast,0.0758 µM
same,TGI,PC-3 prostate,0.00574 µM
same,TGI,HCC-2998 colon,216 nM [middle of 4 runs]
same,GI50,DMS 273 small cell lung,0.0875 µM and 0.07 µM
same,TGI,DMS 273 small cell lung,118 nM [middle of 4 runs]
same,GI50,MCF7 breast,0.0207 µM
same,TGI,MDA-MB-231 breast,0.102 µM
same,GI50,CCRF-CEM leukemia,0.00559 µM and 0.0246 µM and 0.00627 µM
same,TGI,CCRF-CEM leukemia,0.148 µM and 0.0759 µM
same,TGI,DU-145 prostate,0.0487 µM
same,TGI,ACHN renal,0.103 µM
same,TGI,BT-549 breast,0.0389 µM
same,TGI,786-0 renal,0.0684 µM
COC(=O)/C=C/C(=O)C1C(C(=O)OC)C2(C(=O)OC)CCC1(C(=O)OC)N2 (configuration not stated),TGI,U251 CNS,> 100 µM
same,TGI,HCT-116 colon,> 100 µM
same,TGI,SNB-78 CNS,> 100 µM
same,TGI,SF-268 CNS,> 100 µM
same,TGI,KM12 colon,> 100 µM
same,TGI,A549 NSCLC,> 100 µM
same,TGI,MOLT-4 leukemia,> 100 µM
same,TGI,SF-539 CNS,> 100 µM
same,TGI,SF-295 CNS,> 100 µM
same,TGI,HL-60(TB) leukemia,> 100 µM
same,TGI,EKVX NSCLC,> 100 µM
same,TGI,SK-MEL-5 melanoma,> 100 µM
same,TGI,DMS 114 small cell lung,> 100 µM
same,TGI,M14 melanoma,> 100 µM
same,TGI,SK-MEL-28 melanoma,> 100 µM
same,TGI,OVCAR-4 ovarian,> 100 µM
same,TGI,UACC-62 melanoma,> 100 µM
same,TGI,SK-MEL-2 melanoma,> 100 µM
same,TGI,RPMI-8226 leukemia,> 100 µM
same,TGI,IGROV1 ovarian,> 100 µM
same,TGI,OVCAR-8 ovarian,> 100 µM
same,TGI,OVCAR-5 ovarian,> 100 µM
same,TGI,SK-OV-3 ovarian,> 100 µM
same,TGI,TK-10 renal,> 100 µM
same,TGI,SR leukemia,> 100 µM
same,TGI,CAKI-1 renal,> 100 µM
same,TGI,HOP-18 NSCLC,> 100 µM
same,TGI,HCC-2998 colon,> 100 µM
same,TGI,DLD-1 colon,> 100 µM
same,TGI,UO-31 renal,> 100 µM
same,TGI,M19-MEL melanoma,> 100 µM
same,TGI,K-562 leukemia,> 100 µM
same,TGI,HCT-15 colon,> 100 µM
same,TGI,SNB-19 CNS,> 100 µM
same,TGI,HOP-62 NSCLC,> 100 µM
same,TGI,OVCAR-3 ovarian,> 100 µM
same,TGI,COLO 205 colon,> 100 µM
same,TGI,HT29 colon,> 100 µM
same,TGI,RXF 393 renal,> 100 µM
same,TGI,MALME-3M melanoma,> 100 µM
same,TGI,786-0 renal,> 100 µM
same,TGI,NCI-H23 lung,> 100 µM
CC(=O)N(CN1C(=O)CCC1C(=O)O)c1ccccc1 (configuration not stated),TGI,U251 CNS,> 100 µM
same,TGI,NCI-H522 lung,> 100 µM
same,TGI,HCT-116 colon,> 100 µM
same,TGI,SF-268 CNS,> 100 µM
same,TGI,KM12 colon,> 100 µM
same,TGI,A549 NSCLC,> 100 µM
same,TGI,MOLT-4 leukemia,> 100 µM
same,TGI,NCI/ADR-RES ovarian,> 100 µM
same,TGI,A498 renal,> 100 µM
same,TGI,SF-539 CNS,> 100 µM
same,TGI,SF-295 CNS,> 100 µM
same,TGI,HL-60(TB) leukemia,> 100 µM
same,TGI,EKVX NSCLC,> 100 µM
same,TGI,SK-MEL-5 melanoma,> 100 µM
same,TGI,UACC-257 melanoma,> 100 µM
same,TGI,MDA-N,> 100 µM
same,TGI,NCI-H460 lung,> 100 µM
same,TGI,M14 melanoma,> 100 µM
same,TGI,SK-MEL-28 melanoma,> 100 µM
same,TGI,HOP-92 NSCLC,> 100 µM
same,TGI,OVCAR-4 ovarian,> 100 µM
same,TGI,UACC-62 melanoma,> 100 µM
same,TGI,SK-MEL-2 melanoma,> 100 µM
same,TGI,RPMI-8226 leukemia,> 100 µM
same,TGI,LOX IMVI melanoma,> 100 µM
same,TGI,NCI-H226 lung,> 100 µM
same,TGI,IGROV1 ovarian,> 100 µM
same,TGI,MDA-MB-435,> 100 µM
same,TGI,T-47D breast,> 100 µM
same,TGI,OVCAR-8 ovarian,> 100 µM
same,TGI,OVCAR-5 ovarian,> 100 µM
same,TGI,SK-OV-3 ovarian,> 100 µM
same,TGI,TK-10 renal,> 100 µM
same,TGI,SR leukemia,> 100 µM
same,TGI,CAKI-1 renal,> 100 µM
same,TGI,HS 578T breast,> 100 µM
same,TGI,PC-3 prostate,> 100 µM
same,TGI,HCC-2998 colon,> 100 µM
same,TGI,UO-31 renal,> 100 µM
same,TGI,K-562 leukemia,> 100 µM
same,TGI,HCT-15 colon,> 100 µM
same,TGI,SNB-19 CNS,> 100 µM
same,TGI,HOP-62 NSCLC,> 100 µM
same,TGI,MCF7 breast,> 100 µM
same,TGI,MDA-MB-231 breast,> 100 µM
same,TGI,OVCAR-3 ovarian,> 100 µM
same,TGI,COLO 205 colon,> 100 µM
same,TGI,HT29 colon,> 100 µM
same,TGI,SN12C renal,> 100 µM
same,TGI,CCRF-CEM leukemia,> 100 µM
same,TGI,RXF 393 renal,> 100 µM
same,TGI,DU-145 prostate,> 100 µM
same,TGI,SW-620 colon,> 100 µM
same,TGI,ACHN renal,> 100 µM
same,TGI,BT-549 breast,> 100 µM
same,TGI,MALME-3M melanoma,> 100 µM
same,TGI,SNB-75 CNS,> 100 µM
same,TGI,786-0 renal,> 100 µM
same,TGI,NCI-H23 lung,> 100 µM

# Source: PubChem BioAssay (NCI)
